Measured values taken from US7481993B2, “Chelators for radioactively labeled conjugates comprising a stabilizing sidechain” (Schering AG, priority 2005, dated 2009).
Values joined by “and” are separate entries in the source; they are usually repeats but may differ in a detail not shown here. Equal values may be shown once. Values belong to the substance of their own block, whether it stands above or below them. * marks the point of attachment. Bz = O=C(c1ccccc1)*

Columns and labels:
Assay type in all cases: physicochemical
[1] = Cysteine challenge stability of ^99mTc chelator peptides; conditions: N1-N2-Cys triamide thiol chelators; for % Peptide Complexed to ^99mTc Initial: 150 μg cysteine, room temperature, Initial (within 5 minutes); for % Peptide Complexed to ^99mTc 2 h / % Peptide Complexed to ^99mTc 4 h / % Peptide Complexed to ^99mTc 6 h / % Peptide Complexed to ^99mTc 8 h / % Peptide Complexed to ^99mTc 10 h / % Peptide Complexed to ^99mTc 12 h: cysteine challenge
Method: (§1) For the ^99mTc radiolabeling, a peptide as the TFA salt was dissolved in saline at 1 mg/mL and 100 μg (100 μL) was added to a ^99mTc placebo vial. The vial was reconstituted with 0.9 mL technetium ^99mTc sodium pertechnetate containing approximately 20 mCi and saline such that the final preparation volume was 1.1 mL. The vial was heated in a boiling water bath for 10 minutes and cooled at room temperature for 10 minutes.
(§2) The radiochemical purity (RCP) of the ^99mTc or ^188Re peptides was measured by gradient reversed phase HPLC using a Eurosphere-100 C18 HPLC column and 0.1% TFA mobile phases moderated with acetonitrile. Radioactive components were detected in the HPLC system using an in-line radiometric detector. Under the gradient conditions employed radiolabeled impurities (for example: ^99mTc glucoheptonate, ^99mTc edetate, and ^99mTc pertechnetate) eluted early (between 1 and 4 minutes), while the radiolabeled peptides eluted much later (between 8 and 20 minutes). In general, two isomeric radiometal complexes were observed, and the HPLC RCP was measured as the sum of the percent areas of the peaks corresponding to the two complexes. Radiochemical purity results for each of compounds are summarized in the examples that follow.
(§3) To ^99mTc radiolabelled peptide preparations described in Example 3 was added 150 μg of cysteine (approximately a 7-fold molar excess over peptide), and the preparations were stored at room temperature and monitored by HPLC for up to 12 hours. The amount of ^99mTc cysteine formed over time was noted. The initial HPLC analysis was started within 5 minutes of adding cysteine. In all cysteine challenge studies, a chelator compound containing a stabilizing sidechain was screened vs. the corresponding control chelator compound containing no sidechain. The relative amount of ^99mTc cysteine formed over time correlates inversely with the stability of the chelator (ie. less ^99mTc cysteine indicates higher chelator stability).
Several model chelator peptides were prepared with an N^1—N^2-Cys (N^1, N^2=independently any amino acid) amino acid sequence capable of complexing technetium as a triamide thiol chelator. Various stabilizing sidechains were substituted into the N^1—N^2-Cys chelator in two positions R1 and R2 as depicted in FIG. 4. The compounds were screened in the cysteine challenge experiment described in Example 4. Several experiments were conducted where 1-2 chelators were compared directly to a control chelator containing no stabilizing sidechain (compound GoC1 was also analyzed alone in a further study). Results in Table 5 represent % Peptide complexed to ^99mTc (ie. 100%−the amount of ^99mTc cysteine) vs. time.
Several model chelator peptides were prepared with an (β)Dap-N^2-Cys (N^2=any amino acid) amino acid sequence capable of complexing technetium as an amine diamide thiol chelator. This chelator is the chelator in the somatostatin peptides that were evaluated in Examples 5 and 6. Various stabilizing sidechains were substituted into the (β)Dap-N^2-Cys chelator in two positions R3 and R4 as depicted in FIG. 5. The compounds were screened in the cysteine challenge experiment described in Example 4. Several experiments were conducted where 1-2 chelators were compared directly to a control chelator containing no stabilizing sidechain. Results in Table 6 are the same as described in Example 7.
Two model chelator peptides were prepared with a ma-N^1—N^2 (Ma=mercaptoacetyl; N^1, N^2=independently any amino acid) amino acid sequence capable of complexing technetium as a triamide thiol chelator. This chelator has the thiol donor group at the N-terminus of the peptide. A stabilizing sidechain was substituted into the ma-N^1—N^2 chelator in position R5 as depicted in FIG. 6. The compounds were radiolabeled according to Example 3 with the exception that additional NaOH was added to bring the pH of the preparation up to pH 8.5. […]

[2] = Cysteine challenge stability of ^188Re chelator peptides; conditions: radiolabeled with ^188Re
Method: For the ^188Re radiolabeling, a peptide as the TFA salt was dissolved in saline at 1 mg/mL and 100 μg (100 μL) was added to a ^188Re placebo vial. To the vial was added 100 μg stannous chloride dihydrate. The vial was reconstituted with 0.9 mL rhenium ^188Re sodium perrhenate containing approximately 20 mCi and saline such that the final preparation volume was 1.5 mL. The vial was heated in a boiling water bath for 15 minutes and cooled at room temperature for 10 minutes. Finally 1 mL of an antioxidant stabilizer solution containing 10 mg gentisic acid sodium salt monohydrate and 20 mg ascorbic acid was added to the vial.
as §2, §3
Some of the N^1—N^2-Cys (N^1, N^2=independently any amino acid) model chelator peptides described in Example 7 were radiolabeled with ^188Re and screened in the cysteine challenge experiment described in Example 4. Two chelators (See FIG. 4) were compared directly to the control chelator containing no stabilizing sidechain. In these studies, the products were monitored for 6 hours. Results in Table 8 represent % Peptide complexed to ^188Re (ie. 100%−the amount of ^188Re cysteine) vs. time.

[3] = HPLC radiochemical purity (RCP) stability of ^99mTc radiolabeled somatostatin peptides
Method: Lyophilized kit “placebo” vials were prepared containing 5 mg sodium glucoheptonate dihydrate, 100 μg edetate disodium dihydrate, and either 50 μg (^99mTc placebo) or 1000 μg (^188Re placebo) stannous chloride dihydrate. The formulations were adjusted to pH 7.4 prior to lyophilization.
as §1, §2
Somatostatin peptides were prepared with varying sidechains in the chelator portion of the compounds as described in FIG. 2. The sidechains varied in length from 0 to 5 atoms. These peptides have an amine-diamide-thiol chelator of the (β)Dap-N^2-Cys type (N^2=any amino acid). Each of the peptides were radiolabeled and monitored for HPLC stability out to 9 hours according the procedures described in Example 3.
Analogs to a commercial lung cancer imaging radiopharmaceutical (NeoTect®) were prepared to investigate the influence of the stabilizing sidechain (D)-CH2CH2CH2NH2 as described in FIG. 3. These peptides have an amine-diamide-thiol chelator of the (β)Dap-N^2-Cys type (N^2=any amino acid). The compound with N^2=Lys (sidechain=(L)-CH2CH2—CH2CH2NH2) is the peptide in the commercial radiopharmaceutical product. Each of the peptides were radiolabeled and monitored for HPLC stability out to 18 hours according to the procedures described in Example 3.

[4] = ^99mTc labeled somatostatin peptide, (β)Dap-N2-Cys chelator, sum of percent areas of the two complex peaks
[5] = ^99mTc labeled somatostatin peptide, (β)Dap-N2-Cys chelator

Substance: Bz-Gly-Gly-Glu-Cys-Ala.amide (Bz-GGECA-NH2; SMILES C[C@H](NC(=O)[C@H](CS)NC(=O)[C@H](CCC(=O)O)NC(=O)CNC(=O)CNC(=O)c1ccccc1)C(N)=O)
% Peptide Complexed to ^99mTc Initial [1]: 100%
% Peptide Complexed to ^99mTc 2 h [1]: 88.9%
% Peptide Complexed to ^99mTc 4 h [1]: 84.5%
% Peptide Complexed to ^99mTc 6 h [1]: 80.3%
% Peptide Complexed to ^99mTc 8 h [1]: 75.7%
% Peptide Complexed to ^99mTc 10 h [1]: 74.1%
% Peptide Complexed to ^99mTc 12 h [1]: 69.0%
% Peptide Complexed to ^188Re ([2]; 1.5 h): 94.0%
% Peptide Complexed to ^188Re ([2]; 3 h): 90.5%
% Peptide Complexed to ^188Re ([2]; 4.5 h): 89.7%
% Peptide Complexed to ^188Re ([2]; 6 h): 90.2%
% Peptide Complexed to ^188Re ([2]; N1-N2-Cys chelators, Initial): 98.0%

HPLC RCP 0.5 hours [3, 4]: 88.5%
HPLC RCP 3 hours [3, 5]: 86.6%
HPLC RCP 6 hours [3, 5]: 84.1%
HPLC RCP 9 hours [3, 5]: 82.6%
Substance: cyclo-[Tyr-(D)Trp-Lys-Thr-Phe-(N-Me)Hcy]-CH2CO.(β)Dap-(α)Dap-Cys-Thr-Ser [—CH2NH2]

HPLC RCP 0.5 hours ([3]; ^99mTc labeled NeoTect analogs): 93.9%
HPLC RCP 3 hours ([3]; ^99mTc labeled NeoTect analogs): 91.0%
HPLC RCP 6 hours ([3]; ^99mTc labeled NeoTect analogs): 85.2%
HPLC RCP 9 hours ([3]; ^99mTc labeled NeoTect analogs): 81.8%
HPLC RCP 18 hrs. ([3]; ^99mTc labeled NeoTect analogs): 75.7%
Substance: cyclo-[(N-Me)Phe-Tyr-(D)Trp-Lys-Val-Hcy]-CH2CO.(β)Dap-Lys-Cys-Lys-NH2 [-(β)Dap-Lys-Cys-Lys-NH2, reference compound]

HPLC RCP 0.5 hours [3, 4]: 83.4%
HPLC RCP 3 hours [3, 5]: 83.4%
HPLC RCP 6 hours [3, 5]: 81.3%
HPLC RCP 9 hours [3, 5]: 81.0%
Substance: cyclo-[Tyr-(D)Trp-Lys-Thr-Phe-(N-Me)Hcy]-CH2CO.(β)Dap-Lys-Cys-Thr-Ser [—CH2CH2CH2CH2NH2]

Substance: cyclo-[Tyr-(D)Trp-Lys-Thr-Phe-(N-Me)Hcy]-CH2CO.(β)Dap-Gly-Cys-Thr-Ser [—H]
HPLC RCP 0.5 hours [3, 4]: 89.7%
HPLC RCP 3 hours [3, 5]: 84.8%
HPLC RCP 6 hours [3, 5]: 83.7%
HPLC RCP 9 hours [3, 5]: 80.2%

Substance: Bz-Gly-Gly-Gly-Cys-Ala.amide (Bz-GGGCA-NH2; SMILES C[C@H](NC(=O)[C@H](CS)NC(=O)CNC(=O)CNC(=O)CNC(=O)c1ccccc1)C(N)=O) [GGC1, control chelator, no stabilizing sidechain]
% Peptide Complexed to ^99mTc Initial [1]: 98.2% and 98.8% and 96.9%
% Peptide Complexed to ^99mTc 2 h [1]: 83.4% and 83.6% and 85.2%
% Peptide Complexed to ^99mTc 4 h [1]: 83.5% and 74.0% and 71.7%
% Peptide Complexed to ^99mTc 6 h [1]: 74.3% and 72.0%
% Peptide Complexed to ^99mTc 8 h [1]: 69.8% and 68.3% and 61.7%
% Peptide Complexed to ^99mTc 10 h [1]: 57.9% and 65.0% and 60.0%
% Peptide Complexed to ^99mTc 12 h [1]: 60.7% and 49.7%
% Peptide Complexed to ^188Re ([2]; 1.5 h): 80.1%
% Peptide Complexed to ^188Re ([2]; 3 h): 61.4%
% Peptide Complexed to ^188Re ([2]; 4.5 h): 50.2%
% Peptide Complexed to ^188Re ([2]; 6 h): 47.7%
% Peptide Complexed to ^188Re ([2]; N1-N2-Cys chelators, Initial): 100%

HPLC RCP 0.5 hours [3, 4]: 97.0%
HPLC RCP 3 hours [3, 5]: 95.2%
HPLC RCP 6 hours [3, 5]: 94.9%
HPLC RCP 9 hours [3, 5]: 94.9%
Substance: cyclo-[Tyr-(D)Trp-Lys-Thr-Phe-(N-Me)Hcy]-CH2CO.(β)Dap-Orn-Cys-Thr-Ser [—CH2CH2CH2NH2]

HPLC RCP 0.5 hours [3, 4]: 95.0%
HPLC RCP 3 hours [3, 5]: 93.7%
HPLC RCP 6 hours [3, 5]: 92.5%
HPLC RCP 9 hours [3, 5]: 92.3%
Substance: cyclo-[Tyr-(D)Trp-Lys-Thr-Phe-(N-Me)Hcy]-CH2CO.(β)Dap-Met-Cys-Thr-Ser [—CH2CH2SCH3]

HPLC RCP 0.5 hours [3, 4]: 94.3%
HPLC RCP 3 hours [3, 5]: 91.6%
HPLC RCP 6 hours [3, 5]: 90.7%
HPLC RCP 9 hours [3, 5]: 89.2%
Substance: cyclo-[Tyr-(D)Trp-Lys-Thr-Phe-(N-Me)Hcy]-CH2CO.(β)Dap-Dab-Cys-Thr-Ser [—CH2CH2NH2]

HPLC RCP 0.5 hours ([3]; ^99mTc labeled NeoTect analogs): 92.3%
HPLC RCP 3 hours ([3]; ^99mTc labeled NeoTect analogs): 84.9%
HPLC RCP 6 hours ([3]; ^99mTc labeled NeoTect analogs): 85.6%
HPLC RCP 9 hours ([3]; ^99mTc labeled NeoTect analogs): 81.3%
HPLC RCP 18 hrs. ([3]; ^99mTc labeled NeoTect analogs): 76.0%
Substance: cyclo-[(N-Me)Phe-Tyr-(D)Trp-Lys-Val-Hcy]-CH2CO.(β)Dap-Gly-Cys-Lys-NH2 [-(β)Dap-Gly-Cys-Lys-NH2]

HPLC RCP 0.5 hours ([3]; ^99mTc labeled NeoTect analogs): 96.8%
HPLC RCP 3 hours ([3]; ^99mTc labeled NeoTect analogs): 94.1%
HPLC RCP 6 hours ([3]; ^99mTc labeled NeoTect analogs): 91.3%
HPLC RCP 9 hours ([3]; ^99mTc labeled NeoTect analogs): 89.8%
HPLC RCP 18 hrs. ([3]; ^99mTc labeled NeoTect analogs): 81.9%
Substance: cyclo-[(N-Me)Phe-Tyr-(D)Trp-Lys-Val-Hcy]-CH2CO.(β)Dap-(D)Orn-Cys-Lys-NH2 [-(β)Dap-(D)Orn-Cys-Lys-NH2]
